Reference: patent publication US20130274174A1, “THERAPEUTIC COMBINATION OF DAPTOMYCIN AND PROTEIN SYNTHESIS INHIBITOR ANTIBIOTIC, AND METHODS OF USE” (priority 2011, published 2013)
In brackets after ≈: the same amount, converted by molar mass. Where two headings read alike, the source gives them in different places.

Test system: S. aureus MW2 (NRS123)
Experiment: microbe, parasite or virus in culture
Assay type: cell-based, Staphylococcus aureus
Conditions: Staphylococcus aureus
Method: S. aureus strains MW2 (NARSA collection clinical MRSA isolate, NRS123) and ATCC 33591 (MRSA strain from the American Type Culture Collection) were cultured on Mueller-Hinton II cation adjusted (MHA) medium in 90×90 mm square petri dishes. MHA containing ¼ of the MIC value of TR-700, TR-705, LZD, TIA, CLI, TET, or VAN, TMP/SMX throughout the plate and a continuous linear gradient of DAP across the plate was used to passage MW2. ATCC 33591 was passaged with ¼ of the MIC of a subset of these drugs (TR-700, TMP/SMX, and VAN). A DAP-only control passage group was included for both strains. DAP gradients were created by pouring two layers of media as previously described (Bryson, V., et al. 1952. Microbial selection. Science 116:45-51; Locke, J. B., et al., 2009. Antimicrob. Agents Chemother. 53:5265-5274). Following each passage the leading edge of growth (i.e., most resistant cells) was resuspended in phosphate buffered saline (PBS) to an absorbance of 0.30 OD600 and a 100 μl aliquot containing ˜3.0×10^7 CFU (colony-forming units) was spread on to the proceeding passage plate. The starting maximal DAP concentration was 2 μg/ml and was increased in two-fold increments when the leading edge of growth surpassed the half way point on the plate. A glycerol stock was made from the total cell population for each culture condition for each passage. Thirty serial passages were completed for each treatment group.

[1] = NRS123, passage 5, selection group DAP
[2] = NRS123, passage 5, selection group DAP + CLI
[3] = NRS123, passage 5, selection group DAP + LZD
[4] = NRS123, passage 5, selection group DAP + TET
[5] = NRS123, passage 5, selection group DAP + TIA
[6] = NRS123, passage 5, selection group DAP + TMP/SMX
[7] = NRS123, passage 5, selection group DAP + TR-700
[8] = NRS123, passage 5, selection group DAP + TR-705
[9] = NRS123, passage 5, selection group DAP + VAN
[10] = NRS123, passage 10, selection group DAP
[11] = NRS123, passage 10, selection group DAP + CLI
[12] = NRS123, passage 10, selection group DAP + LZD
[13] = NRS123, passage 10, selection group DAP + TET
[14] = NRS123, passage 10, selection group DAP + TIA
[15] = NRS123, passage 10, selection group DAP + TMP/SMX
[16] = NRS123, passage 10, selection group DAP + TR-700
[17] = NRS123, passage 10, selection group DAP + TR-705
[18] = NRS123, passage 10, selection group DAP + VAN
[19] = NRS123, passage 15, selection group DAP
[20] = NRS123, passage 15, selection group DAP + CLI
[21] = NRS123, passage 15, selection group DAP + LZD
[22] = NRS123, passage 15, selection group DAP + TET
[23] = NRS123, passage 15, selection group DAP + TIA
[24] = NRS123, passage 15, selection group DAP + TMP/SMX
[25] = NRS123, passage 15, selection group DAP + TR-700
[26] = NRS123, passage 15, selection group DAP + TR-705
[27] = NRS123, passage 15, selection group DAP + VAN
[28] = NRS123, passage 20, selection group DAP
[29] = NRS123, passage 20, selection group DAP + CLI
[30] = NRS123, passage 20, selection group DAP + LZD
[31] = NRS123, passage 20, selection group DAP + TET
[32] = NRS123, passage 20, selection group DAP + TIA
[33] = NRS123, passage 20, selection group DAP + TMP/SMX
[34] = NRS123, passage 20, selection group DAP + TR-700
[35] = NRS123, passage 20, selection group DAP + TR-705
[36] = NRS123, passage 20, selection group DAP + VAN
[37] = NRS123, passage 25, selection group DAP
[38] = NRS123, passage 25, selection group DAP + CLI
[39] = NRS123, passage 25, selection group DAP + LZD
[40] = NRS123, passage 25, selection group DAP + TET
[41] = NRS123, passage 25, selection group DAP + TIA
[42] = NRS123, passage 25, selection group DAP + TMP/SMX
[43] = NRS123, passage 25, selection group DAP + TR-700
[44] = NRS123, passage 25, selection group DAP + TR-705
[45] = NRS123, passage 25, selection group DAP + VAN
[46] = NRS123, passage 30, selection group DAP
[47] = NRS123, passage 30, selection group DAP + CLI
[48] = NRS123, passage 30, selection group DAP + LZD
[49] = NRS123, passage 30, selection group DAP + TET
[50] = NRS123, passage 30, selection group DAP + TIA
[51] = NRS123, passage 30, selection group DAP + TMP/SMX
[52] = NRS123, passage 30, selection group DAP + TR-700
[53] = NRS123, passage 30, selection group DAP + TR-705
[54] = NRS123, passage 30, selection group DAP + VAN
[55] = NRS123, read-out: DAP MIC by the end of the experiment (selection of DAP^ns strains), MW2, passaged with DAP alone or with co-selecting agent at ¼ MIC, CLSI breakpoint

CCC[C@@H]1C[C@@H](C(=O)N[C@@H]([C@H]2O[C@H](SC)[C@H](O)[C@@H](O)[C@H]2O)[C@H](C)Cl)N(C)C1 [CLI, clindamycin]
MIC (NRS123, passage 0, NRS123 WT): 0.125 µg/mL (≈ 0.294 µM) | MIC [1]: 0.125 µg/mL (≈ 0.294 µM) | MIC [2]: 0.0625 µg/mL | MIC [3]: 0.0625 µg/mL | MIC [4]: 0.125 µg/mL | MIC [5]: 0.125 µg/mL | MIC [6]: 0.125 µg/mL | MIC [7]: 0.125 µg/mL | MIC [8]: 0.0625 µg/mL | MIC [9]: 0.125 µg/mL | MIC [10]: 0.125 µg/mL (≈ 0.294 µM) | MIC [11]: 0.0625 µg/mL | MIC [12]: 0.0625 µg/mL | MIC [13]: 0.0625 µg/mL | MIC [14]: 0.125 µg/mL | MIC [15]: 0.125 µg/mL | MIC [16]: 0.125 µg/mL | MIC [17]: 0.125 µg/mL | MIC [18]: 0.0625 µg/mL | MIC [19]: 0.125 µg/mL (≈ 0.294 µM) | MIC [20]: 0.0625 µg/mL | MIC [21]: 0.125 µg/mL | MIC [22]: 0.0313 µg/mL | MIC [23]: 0.0625 µg/mL | MIC [24]: 0.125 µg/mL | MIC [25]: 0.125 µg/mL | MIC [26]: 0.0625 µg/mL | MIC [27]: 0.125 µg/mL | MIC [28]: 0.0625 µg/mL (≈ 0.147 µM) | MIC [29]: 0.0625 µg/mL | MIC [30]: 0.125 µg/mL | MIC [31]: 0.0313 µg/mL | MIC [32]: 0.0625 µg/mL | MIC [33]: 0.125 µg/mL | MIC [34]: 0.125 µg/mL | MIC [35]: 0.0625 µg/mL | MIC [36]: 0.125 µg/mL | MIC [37]: 0.125 µg/mL (≈ 0.294 µM) | MIC [38]: 0.0625 µg/mL | MIC [39]: 0.0625 µg/mL | MIC [40]: 0.0313 µg/mL | MIC [41]: 0.0625 µg/mL | MIC [42]: 0.125 µg/mL | MIC [43]: 0.125 µg/mL | MIC [44]: 0.0625 µg/mL | MIC [45]: 0.125 µg/mL | MIC [46]: 0.125 µg/mL (≈ 0.294 µM) | MIC [47]: 0.0625 µg/mL | MIC [48]: 0.0625 µg/mL | MIC [49]: 0.0313 µg/mL | MIC [50]: 0.125 µg/mL | MIC [51]: 0.125 µg/mL | MIC [52]: 0.125 µg/mL | MIC [53]: 0.125 µg/mL | MIC [54]: 0.0625 µg/mL | MIC [55]: > 1 µg/mL

C=C[C@]1(C)C[C@@H](OC(=O)CSCCN(CC)CC)[C@]2(C)[C@H](C)CC[C@]3(CCC(=O)[C@H]32)[C@@H](C)[C@@H]1O [TIA, tiamulin]
MIC (NRS123, passage 0, NRS123 WT): 0.5 µg/mL (≈ 1.01 µM) | MIC [1]: 0.5 µg/mL (≈ 1.01 µM) | MIC [2]: 1 µg/mL | MIC [3]: 1 µg/mL | MIC [4]: 0.5 µg/mL | MIC [5]: 0.5 µg/mL | MIC [6]: 0.5 µg/mL | MIC [7]: 1 µg/mL | MIC [8]: 1 µg/mL | MIC [9]: 0.5 µg/mL | MIC [10]: 0.5 µg/mL (≈ 1.01 µM) | MIC [11]: 1 µg/mL | MIC [12]: 1 µg/mL | MIC [13]: 0.5 µg/mL | MIC [14]: 0.5 µg/mL | MIC [15]: 1 µg/mL | MIC [16]: 1 µg/mL | MIC [17]: 0.5 µg/mL | MIC [18]: 0.5 µg/mL | MIC [19]: 0.5 µg/mL (≈ 1.01 µM) | MIC [20]: 0.5 µg/mL | MIC [21]: 1 µg/mL | MIC [22]: 0.25 µg/mL | MIC [23]: 0.5 µg/mL | MIC [24]: 1 µg/mL | MIC [25]: 1 µg/mL | MIC [26]: 0.5 µg/mL | MIC [27]: 0.5 µg/mL | MIC [28]: 0.5 µg/mL (≈ 1.01 µM) | MIC [29]: 0.5 µg/mL | MIC [30]: 1 µg/mL | MIC [31]: 0.25 µg/mL | MIC [32]: 0.5 µg/mL | MIC [33]: 0.5 µg/mL | MIC [34]: 1 µg/mL | MIC [35]: 0.5 µg/mL | MIC [36]: 0.5 µg/mL | MIC [37]: 0.25 µg/mL (≈ 0.506 µM) | MIC [38]: 0.5 µg/mL | MIC [39]: 0.25 µg/mL | MIC [40]: 0.25 µg/mL | MIC [41]: 0.5 µg/mL | MIC [42]: 0.5 µg/mL | MIC [43]: 1 µg/mL | MIC [44]: 0.5 µg/mL | MIC [45]: 0.5 µg/mL | MIC [46]: 0.25 µg/mL (≈ 0.506 µM) | MIC [47]: 0.25 µg/mL | MIC [48]: 0.5 µg/mL | MIC [49]: 0.25 µg/mL | MIC [50]: 0.5 µg/mL | MIC [51]: 0.5 µg/mL | MIC [52]: 0.5 µg/mL | MIC [53]: 0.5 µg/mL | MIC [54]: 0.25 µg/mL | MIC [55]: > 1 µg/mL
